In patent US20240132492A1, “PYRIDOPYRIMIDINE-BASED COMPOUND AND APPLICATION THEREOF” (JINAN UNIVERSITY, priority 2021, published 2024):

Tests used:
Type in all cases: cell-based
BT-549 = assay: CCK-8 tumor cell proliferation, BT-549; settings: Homo sapiens, BT-549 cells, 72 hours
Description: (§1) Tumor cells (see Table 2 to Table 5) were inoculated in 96-well plates in complete culture medium (2000-3000 cells/well). After overnight incubation, the compounds with different concentrations (0.000508 μM-10 μM) were used to treat the cells separately for 72 hours. CCK-8 (Cell Counting Kit 8, Dojindo Laboratories, Kumamoto, Japan) experiment was used to evaluate cell proliferation. GraphPad Prism 5.0 software (La Jolla, CA) was used to calculate the half-maximal inhibitory concentration (IC50) values by fitting the concentration response curve. Each IC50 value was represented as an average value±SD.

Huh7 = assay: CCK-8 tumor cell proliferation, Huh7; settings: Homo sapiens, Huh-7, Huh7 cells, 72 hours
Description: as §1

AKT1 = molecular target: T1, AKT1 (Homo sapiens, UniProt P31749); assay: Western Blot, degradation of AKT1 protein in H1975-OR cells; settings: 1000 nM, 24 hours, maximum degradation rate
T1 construct: AKT1, AKT2, and AKT3 proteins in H1975-OR cells; endogenous in cells; host or cells: H1975-OR (osimertinib-resistant H1975)
T1 sequence (P31749 whole entry): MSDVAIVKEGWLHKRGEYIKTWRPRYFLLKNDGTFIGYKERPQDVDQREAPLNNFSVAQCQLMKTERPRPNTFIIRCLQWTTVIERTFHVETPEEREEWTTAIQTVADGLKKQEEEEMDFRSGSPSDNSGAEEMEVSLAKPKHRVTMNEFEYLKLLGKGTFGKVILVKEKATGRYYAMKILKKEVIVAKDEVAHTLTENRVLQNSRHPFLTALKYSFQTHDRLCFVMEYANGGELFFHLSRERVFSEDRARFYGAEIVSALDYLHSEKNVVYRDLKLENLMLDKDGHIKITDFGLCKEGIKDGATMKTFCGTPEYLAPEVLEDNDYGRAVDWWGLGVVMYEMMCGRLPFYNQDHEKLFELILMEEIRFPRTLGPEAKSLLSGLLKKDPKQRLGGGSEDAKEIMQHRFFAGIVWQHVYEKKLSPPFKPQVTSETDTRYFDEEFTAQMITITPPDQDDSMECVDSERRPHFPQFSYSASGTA
In short: (§2)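 H1975-OR cells are Osimertinib-resistant H1975, adapted stepwise from 50 nM to 3 μM Osimertinib. Cells were treated with compound for 24 h, lysed, and immunoblotted with ECL detection. Band grayscale density was quantified.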

AKT2 = molecular target: T2, AKT2 (Homo sapiens, UniProt P31751); assay: Western Blot, degradation of AKT2 protein in H1975-OR cells; settings: 1000 nM, 24 hours, maximum degradation rate
T2 construct: AKT1, AKT2, and AKT3 proteins in H1975-OR cells; endogenous in cells; host or cells: H1975-OR (osimertinib-resistant H1975)
T2 sequence (P31751 whole entry): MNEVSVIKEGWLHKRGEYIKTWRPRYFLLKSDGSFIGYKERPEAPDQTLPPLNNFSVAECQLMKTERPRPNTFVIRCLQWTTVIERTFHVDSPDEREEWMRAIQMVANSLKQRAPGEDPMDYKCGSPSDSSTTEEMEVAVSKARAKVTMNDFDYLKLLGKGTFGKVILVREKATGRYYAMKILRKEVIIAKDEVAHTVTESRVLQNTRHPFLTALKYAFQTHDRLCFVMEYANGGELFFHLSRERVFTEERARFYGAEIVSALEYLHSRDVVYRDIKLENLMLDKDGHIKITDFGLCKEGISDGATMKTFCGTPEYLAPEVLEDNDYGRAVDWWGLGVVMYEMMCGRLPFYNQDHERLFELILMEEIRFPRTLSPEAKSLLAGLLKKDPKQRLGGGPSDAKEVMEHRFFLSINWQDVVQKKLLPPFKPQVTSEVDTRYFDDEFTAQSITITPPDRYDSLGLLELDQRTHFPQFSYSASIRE
In short: as §2

H1975 = assay: CCK-8 tumor cell proliferation, H1975; settings: Homo sapiens, NCI-H1975, H1975 cells, 72 hours
In short: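 CCK-8 readout after 72 h compound exposure (0.000508 μM-10 μM) of cells plated overnight at 2000-3000 cells/well. IC50 from concentration-response curve fit; mean±SD.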

H1975OR = assay: CCK-8 tumor cell proliferation, H1975OR; settings: H1975OR cells (Osimertinib resistant), 72 hours
In short: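 Osimertinib-resistant H1975 cells, selected by raising Osimertinib stepwise from 50 nM to 3 μM, were treated for 72 h with compound at 0.000508–10 μM. Proliferation was read by CCK-8, and IC50 came from fitting the concentration–response curve, given as mean ± SD.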

MDA-MB-231 = assay: CCK-8 tumor cell proliferation, MDA-MB-231; settings: Homo sapiens, MDA-MB-231 cells, 72 hours
Description: as §1

MDA-MB-453 = assay: CCK-8 tumor cell proliferation, MDA-MB-453; settings: Homo sapiens, MDA-MB-453 cells, 72 hours
Description: as §1

Bel-7402 = assay: CCK-8 tumor cell proliferation, Bel-7402; settings: Homo sapiens, Bel-7402 cells, 72 hours
Description: as §1

AKT3 = AKT3 (Homo sapiens, UniProt Q9Y243); assay: Western Blot, degradation of AKT3 protein in H1975-OR cells; set-up: endogenous in cells; host or cells: H1975-OR (osimertinib-resistant H1975); settings: 1000 nM, 24 hours, maximum degradation rate
Sequence of AKT3 (Q9Y243 whole entry): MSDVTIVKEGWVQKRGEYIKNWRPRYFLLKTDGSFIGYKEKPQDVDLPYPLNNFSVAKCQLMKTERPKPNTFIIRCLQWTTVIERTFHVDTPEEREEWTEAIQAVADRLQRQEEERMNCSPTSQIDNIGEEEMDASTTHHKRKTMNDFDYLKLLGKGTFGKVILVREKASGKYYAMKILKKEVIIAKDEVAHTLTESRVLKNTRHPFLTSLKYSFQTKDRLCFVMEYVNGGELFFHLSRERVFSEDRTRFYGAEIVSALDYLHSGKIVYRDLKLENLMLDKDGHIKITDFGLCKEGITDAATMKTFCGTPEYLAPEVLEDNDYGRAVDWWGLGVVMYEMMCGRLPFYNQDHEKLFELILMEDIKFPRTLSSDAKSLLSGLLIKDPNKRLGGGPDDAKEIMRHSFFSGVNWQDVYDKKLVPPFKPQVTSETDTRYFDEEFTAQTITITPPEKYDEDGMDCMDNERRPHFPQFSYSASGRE
In short: as §2

PC-9 = assay: CCK-8 tumor cell proliferation, PC-9; settings: Homo sapiens, PC-9 cells, 72 hours
Description: as §1

A431 = assay: CCK-8 tumor cell proliferation, A431; settings: Homo sapiens, A-431, A431 cells, 72 hours
Description: as §1

HCC827 = assay: CCK-8 tumor cell proliferation, HCC827; settings: Homo sapiens, HCC827 cells, 72 hours
Description: as §1

H1299 = assay: CCK-8 tumor cell proliferation, H1299; settings: Homo sapiens, NCI-H1299, H1299 cells, 72 hours
Description: as §1

Row | SMILES | IC50 (BT-549) [µM] | IC50 (Huh7) [µM] | Dmax at 1 µM (AKT1) [%] | Dmax at 1 µM (AKT2) [%] | IC50 (H1975) [µM] | IC50 (H1975OR) [µM] | Dmax at 1 µM (AKT3) [%] | IC50 (PC-9) [µM] | IC50 (A431) [µM] | IC50 (HCC827) [µM] | IC50 (H1299) [µM] | also measured
1 | COc1nc(N2CCN(C(=O)C34CC5CC(CC(C5)C3)C4)CC2)ccc1Nc1ncc2c(C)cc(=O)n(-c3cccc(NC(=O)C4CC4)c3)c2n1 [ZX-HYT-69, N-(3-(2-((6-(4-((3R, 5R, 7R)-adamantan-1-carbonyl)piperazin-1-yl)-2-methoxypyridin-3-yl)amino)-5-methyl-7-oxypyridino [2,3-d]pyrimidin-8 (7H)-yl)phenyl) cyclopropane formamide] | 3 | > 10 |  |  |  |  |  |  |  |  |  | 
2 | COc1cc(N2CCN(CCCCCCCCCCCCNC(=O)CC34CC5CC(CC(C5)C3)C4)CC2)ccc1Nc1ncc2c(C)cc(=O)n(-c3cccc(NCC4CC4)c3)c2n1 [ZX-HYT-19, 2-((3R, 5R, 7R)-adamantan-1-yl)-N-(12-(4-(4-(8-(3-((cyclopropylmethyl)amino)phenyl)-5-methyl-7-oxy-7,8-dihydropyridino [2,3-d]pyrimidin-2-yl)amino)-3-methoxyphenyl)piperazin-1-yl) dodecyl) acetamide] | 0.00421 |  | 0 | 0 | 2.29 | 3.46 | 28 |  |  |  |  | IC50 (MDA-MB-231): < 0.001 µM; IC50 (MDA-MB-453): > 10 µM; IC50 (Bel-7402): 0.041 µM
3 | C=CC(=O)Nc1cccc(-n2c(=O)cc(C)c3cnc(Nc4ccc(N5CCN(CCCCCCCCCCCCCCNC(=O)CC67CC8CC(CC(C8)C6)C7)CC5)cc4OC)nc32)c1 [ZX-HYT-06, N-(3-(2-((4-(4-(14-(2-((3R, 5R, 7R)-adamantan-1-yl)acetylamino)tetradecyl)piperazin-1-yl)-2-methoxyphenyl)amino)-5-methyl-7-oxypyridino [2,3-d]pyrimidin-8 (7H)-yl)phenyl) acrylamide] |  |  | 0 | 47 | 0.837 ± 0.11 | 0.125 ± 0.012 | 62.9 | 0.0732 ± 0.00431 | 0.26 ± 0.047 | 0.163 ± 0.0134 | 0.163 ± 0.0134 | 
4 | C=CC(=O)Nc1cccc(-n2c(=O)cc(C)c3cnc(Nc4ccc(N5CCN(CCCCCCCCNC(=O)CC67CC8CC(CC(C8)C6)C7)CC5)cc4OC)nc32)c1 [ZX-HYT-03, N-(3-(2-((4-(4-(8-(2-(((3R, 5R, 7R)-adamantan-1-yl)acetamido)octyl)piperazin-1-yl)-2-methoxyphenyl)amino)-5-methyl-7-oxypyridino [2,3-d]pyrimidin-8 (7H)-yl)phenyl)acrylamide] |  |  | 78.9 | 64.8 | 0.844 ± 0.822 | 0.074 ± 0.004 | 89.1 | 0.0536 ± 0.00753 | 0.0299 ± 0.0028 | 0.0954 ± 0.0331 | 0.876 ± 0.283 | 
5 | COc1nc(N2CCN(C(=O)NC34CC5CC(CC(C5)C3)C4)CC2)ccc1Nc1ncc2c(C)cc(=O)n(-c3cccc(NC(=O)C4CC4)c3)c2n1 [ZX-HYT-68, N-((3S, 5S, 7S)-adamantan-1-yl)-4-(5-((8-(3-(cyclopropaneformamido)phenyl)-5-methyl-7-oxy-7,8-dihydropyridino [2,3-d]pyrimidin-2-yl)amino)-6-methoxypyridin-2-yl) piperazin-1-formamide] | 0.0386 | > 10 |  |  |  |  |  |  |  |  |  | 
6 | COc1nc(N2CCN(C(=O)CC34CC5CC(CC(C5)C3)C4)CC2)ccc1Nc1ncc2c(C)cc(=O)n(-c3cccc(NC(=O)C4CC4)c3)c2n1 [ZX-HYT-67, N-(3-(2-(6-(4-(2-((3R, 5R, 7R)-adamantan-1-yl)acetyl)piperazin-1-yl)-2-methoxypyridin-3-yl))amino)-5-methyl-7-oxypyridino [2,3-d] pyrimidin-8 (7H)-yl) phenyl) cyclopropane formamide] | 0.376 | > 10 |  |  |  |  |  |  |  |  |  | 
7 | C=CC(=O)Nc1cccc(-n2c(=O)cc(C)c3cnc(Nc4ccc(N5CCN(CCCCCCCCCCCCNC(=O)CC67CC8CC(CC(C8)C6)C7)CC5)cc4OC)nc32)c1 [ZX-HYT-05, N-(3-(2-((4-(4-(12-(2-(((3R, 5R, 7R)-adamantan-1-yl)acetylamino)dodecyl)piperazin-1-yl)-2-methoxyphenyl)amino)-5-methyl-7-oxypyridino [2,3-d]pyrimidin-8 (7H)-yl)phenyl)acrylamide] |  |  | 34.4 | 29.9 | 5.19 ± 4.59 | 0.009 ± 0.002 | 71.9 | 0.0083 ± 0.000333 | 0.00806 ± 0.0003 | 0.126 ± 0.0216 | 0.338 ± 0.0855 | 
8 | COc1cc(N2CCN(CCCCCCCCCCCCNC(=O)CC34CC5CC(CC(C5)C3)C4)CC2)ccc1Nc1ncc2c(C)cc(=O)n(-c3cccc(N)c3)c2n1 [ZX-HYT-17, 2-((3R, 5R, 7R)-adamantan-1-yl)-N-(12-(4-(4-(8-(3-aminophenyl)-5-methyl-7-oxy-7,8-dihydropyridino [2,3-d]pyrimidin-2-yl)amino)-3-methoxyphenyl)piperazin-1-yl) dodecyl) acetamide] |  |  | 46.4 | 45.9 | 0.214 ± 0.013 | 0.023 ± 0.007 | 76.4 | 0.0234 ± 0.00578 | 0.0225 ± 0.0035 | 0.186 ± 0.122 | 2.1 ± 0.049 | 

Now from value to compound, other results behind:

Row | IC50 (BT-549) [µM] | IC50 (Huh7) [µM] | Dmax at 1 µM (AKT1) [%] | Dmax at 1 µM (AKT2) [%] | IC50 (H1975) [µM] | IC50 (H1975OR) [µM] | Dmax at 1 µM (AKT3) [%] | IC50 (PC-9) [µM] | IC50 (A431) [µM] | IC50 (HCC827) [µM] | IC50 (H1299) [µM] | SMILES | also measured
9 | 0.0267 | 0.12 |  |  |  |  |  |  |  |  |  | COc1cc(N2CCC(C(=O)NCC34CC5CC(CC(C5)C3)C4)CC2)ccc1Nc1ncc2c(C)cc(=O)n(-c3cccc(NC(=O)C4CC4)c3)c2n1 [ZX-HYT-89, N-(((3R, 5R, 7R)-adamantan-1-yl)methyl)-1-(4-((8-(3-(cyclopropaneformamido)phenyl)-5-methyl-7-oxy-7,8-dihydropyridino [2,3-d]pyrimidin-2-yl)amino)-3-methoxyphenyl) piperidin-4-formamide] | 
10 | 0.937 | 3 |  |  |  |  |  |  |  |  |  | COc1cc(N2CC3(CN(C(=O)CC45CC6CC(CC(C6)C4)C5)C3)C2)ccc1Nc1ncc2c(C)cc(=O)n(-c3cccc(NC(=O)C4CC4)c3)c2n1 [ZX-HYT-91, N-(3-(2-((4-(6-(2-((3R,5R,7R)-adamantan-1-yl)acetyl)-2,6-diazospira [3.3]hept-2-yl))-2-methoxyphenyl)amino)-5-methyl-7-oxypyridino [2,3-d]pyrimidin-8 (7H)-yl) phenyl) cyclopropane formamide] | 
11 | 0.626 | 3 |  |  |  |  |  |  |  |  |  | COc1cc(N2CCN(C(=O)C34CC5CC(CC(C5)C3)C4)CC2)ncc1Nc1ncc2c(C)cc(=O)n(-c3cccc(NC(=O)C4CC4)c3)c2n1 [ZX-HYT-72, N-(3-(2-((6-(4-((3R, 5R, 7R)-adamantan-1-carbonyl)piperazin-1-yl)-4-methoxypyridin-3-yl)amino)-5-methyl-7-oxypyridino [2,3-d]pyrimidin-8 (7H)-yl)phenyl) cyclopropane formamide] | 
12 | 1.02 | > 10 |  |  |  |  |  |  |  |  |  | COc1cc(N2CCN(C(=O)CC34CC5CC(CC(C5)C3)C4)CC2)ncc1Nc1ncc2c(C)cc(=O)n(-c3cccc(NC(=O)C4CC4)c3)c2n1 [ZX-HYT-70, N-(3-(2-((6-(4-(2-((3R, 5R, 7R)-adamantan-1-yl)acetyl)piperazin-1-yl)-4-methoxypyridin-3-yl))amino)-5-methyl-7-oxypyridino [2,3-d]pyrimidin-8 (7H)-yl) phenyl) cyclopropane formamide] | 
13 | 1.25 | > 10 |  |  |  |  |  |  |  |  |  | COc1cc(N2CCN(C(=O)NC34CC5CC(CC(C5)C3)C4)CC2)ncc1Nc1ncc2c(C)cc(=O)n(-c3cccc(NC(=O)C4CC4)c3)c2n1 [ZX-HYT-71, N-((3S, 5S, 7S)-adamantan-1-yl)-4-(5-((8-(3-(cyclopropaneformamido)phenyl)-5-methyl-7-oxy-7,8-dihydropyridino [2,3-d]pyrimidin-2-yl)amino)-4-methoxypyridin-2-yl) piperazin-1-formamide] | 
